Test results taken from patent US20140357713A1, “ANTIMICROBIAL COMPOUNDS AND METHODS OF USE” (NexMed Holdings, Inc., priority 2012, published 2014).

Key:
Assay in all cases: Extended time kill study, Example 34 (0 to 24 h)
Type in all cases: cell-based
Staphylococcus aureus = system: Staphylococcus aureus
Procedure: (§1) Time kill studies. Strain suspensions were prepared as described above for the MIC test, and strain suspensions and compound solutions were mixed in the same volume. Samples were removed at specified times including 0 min, 30 sec, 1 min and 5 mins, were diluted in the test medium and streaked on agar. Colonies were counted after 24 to 48 hrs of incubation.
(§2) The time kill studies of Example 33 were extended for five compounds (Nex-59, Nex-60, Nex-61, Nex-62, and Nex-88) using the same methods at longer time periods and at higher multiples of MIC. Nex-88 is a code number for DDAIP.HCl from a different supplier.

Escherichia coli = system: Escherichia coli
Procedure: as §1, §2

Aspergillus niger = system: Aspergillus niger
Procedure: as §1, §2

Candida albicans = system: Candida albicans
Procedure: as §1, §2

Pseudomonas aeruginosa = system: Pseudomonas aeruginosa
Procedure: as §1, §2

Structure (SMILES): CCCCCCCCCCCCOC(=O)C(C)NCCN(CC)CC.Cl (stereo not drawn) [Nex-62, Dodecyl 2-((2-(diethylamino)ethyl)amino)propanoate dihydrochloride]
- Viable counts, Staphylococcus aureus time kill study (Staphylococcus aureus; 1 × MIC, 1 h): 6.00 Log10 CFU/mL
- Viable counts, Staphylococcus aureus time kill study (Staphylococcus aureus; 1 × MIC, 2 h): 5.66 Log10 CFU/mL
- Viable counts, Staphylococcus aureus time kill study (Staphylococcus aureus; 1 × MIC, 4 h): 4.70 Log10 CFU/mL
- Viable counts, Staphylococcus aureus time kill study (Staphylococcus aureus; 1 × MIC, 6 h): 4.48 Log10 CFU/mL
- Viable counts, Staphylococcus aureus time kill study (Staphylococcus aureus; 1 × MIC, 24 h): <1 Log10 CFU/mL
- Viable counts, Staphylococcus aureus time kill study (Staphylococcus aureus; 1×MIC, time 0): 6.23 Log10 CFU/mL
- Viable counts, Staphylococcus aureus time kill study (Staphylococcus aureus; 2 × MIC, 1 h): 5.30 Log10 CFU/mL
- Viable counts, Staphylococcus aureus time kill study (Staphylococcus aureus; 2 × MIC, 2 h): <3 Log10 CFU/mL
- Viable counts, Staphylococcus aureus time kill study (Staphylococcus aureus; 2 × MIC, 4 h): <3 Log10 CFU/mL
- Viable counts, Staphylococcus aureus time kill study (Staphylococcus aureus; 2 × MIC, 6 h): <3 Log10 CFU/mL
- Viable counts, Staphylococcus aureus time kill study (Staphylococcus aureus; 2 × MIC, 24 h): <1 Log10 CFU/mL
- Viable counts, Staphylococcus aureus time kill study (Staphylococcus aureus; 2 × MIC, time 0): 6.25 Log10 CFU/mL
- Viable counts, Staphylococcus aureus time kill study (Staphylococcus aureus; 4 × MIC, 1 h): 5.30 Log10 CFU/mL
- Viable counts, Staphylococcus aureus time kill study (Staphylococcus aureus; 4 × MIC, 2 h): <3 Log10 CFU/mL
- Viable counts, Staphylococcus aureus time kill study (Staphylococcus aureus; 4 × MIC, 4 h): <3 Log10 CFU/mL
- Viable counts, Staphylococcus aureus time kill study (Staphylococcus aureus; 4 × MIC, 6 h): <3 Log10 CFU/mL
- Viable counts, Staphylococcus aureus time kill study (Staphylococcus aureus; 4 × MIC, 24 h): <1 Log10 CFU/mL
- Viable counts, Staphylococcus aureus time kill study (Staphylococcus aureus; 4 × MIC, time 0): 6.20 Log10 CFU/mL
- Viable counts, Escherichia coli time kill study (Escherichia coli; 1 × MIC, 1 h): 1 Log10 CFU/mL
- Viable counts, Escherichia coli time kill study (Escherichia coli; 1 × MIC, 2 h): 1 Log10 CFU/mL
- Viable counts, Escherichia coli time kill study (Escherichia coli; 1 × MIC, 4 h): <1 Log10 CFU/mL
- Viable counts, Escherichia coli time kill study (Escherichia coli; 1 × MIC, 6 h): 2.18 Log10 CFU/mL
- Viable counts, Escherichia coli time kill study (Escherichia coli; 1 × MIC, 24 h): 7.99 Log10 CFU/mL
- Viable counts, Escherichia coli time kill study (Escherichia coli; 1×MIC, time 0): 5.06 Log10 CFU/mL
- Viable counts, Escherichia coli time kill study (Escherichia coli; 2 × MIC, 1 h): <1 Log10 CFU/mL
- Viable counts, Escherichia coli time kill study (Escherichia coli; 2 × MIC, 2 h): <1 Log10 CFU/mL
- Viable counts, Escherichia coli time kill study (Escherichia coli; 2 × MIC, 4 h): <1 Log10 CFU/mL
- Viable counts, Escherichia coli time kill study (Escherichia coli; 2 × MIC, 6 h): <1 Log10 CFU/mL
- Viable counts, Escherichia coli time kill study (Escherichia coli; 2 × MIC, 24 h): <1 Log10 CFU/mL
- Viable counts, Escherichia coli time kill study (Escherichia coli; 2 × MIC, time 0): 5.18 Log10 CFU/mL
- Viable counts, Escherichia coli time kill study (Escherichia coli; 4 × MIC, 1 h): <1 Log10 CFU/mL
- Viable counts, Escherichia coli time kill study (Escherichia coli; 4 × MIC, 2 h): <1 Log10 CFU/mL
- Viable counts, Escherichia coli time kill study (Escherichia coli; 4 × MIC, 4 h): <1 Log10 CFU/mL
- Viable counts, Escherichia coli time kill study (Escherichia coli; 4 × MIC, 6 h): <1 Log10 CFU/mL
- Viable counts, Escherichia coli time kill study (Escherichia coli; 4 × MIC, 24 h): <1 Log10 CFU/mL
- Viable counts, Escherichia coli time kill study (Escherichia coli; 4 × MIC, time 0): 5.12 Log10 CFU/mL
- Viable counts in Log10 CFU/mL (Aspergillus niger; 1 × MIC, 1 h): 5.53 Log10 CFU/mL
- Viable counts in Log10 CFU/mL (Aspergillus niger; 1 × MIC, 2 h): 5.51 Log10 CFU/mL
- Viable counts in Log10 CFU/mL (Aspergillus niger; 1 × MIC, 4 h): 5.15 Log10 CFU/mL
- Viable counts in Log10 CFU/mL (Aspergillus niger; 1 × MIC, 6 h): 4.78 Log10 CFU/mL
- Viable counts in Log10 CFU/mL (Aspergillus niger; 1 × MIC, 24 h): 4 Log10 CFU/mL
- Viable counts in Log10 CFU/mL (Aspergillus niger; 1 × MIC, 0 h): 5.51 Log10 CFU/mL
- Viable counts in Log10 CFU/mL (Aspergillus niger; 2 × MIC, 1 h): 5.48 Log10 CFU/mL
- Viable counts in Log10 CFU/mL (Aspergillus niger; 2 × MIC, 2 h): 5.57 Log10 CFU/mL
- Viable counts in Log10 CFU/mL (Aspergillus niger; 2 × MIC, 4 h): 5.08 Log10 CFU/mL
- Viable counts in Log10 CFU/mL (Aspergillus niger; 2 × MIC, 6 h): 5.38 Log10 CFU/mL
- Viable counts in Log10 CFU/mL (Aspergillus niger; 2 × MIC, 24 h): 5.58 Log10 CFU/mL
- Viable counts in Log10 CFU/mL (Aspergillus niger; 2 × MIC, 0 h): 5.49 Log10 CFU/mL
- Viable counts in Log10 CFU/mL (Aspergillus niger; 4 × MIC, 1 h): 5.49 Log10 CFU/mL
- Viable counts in Log10 CFU/mL (Aspergillus niger; 4 × MIC, 2 h): 5.49 Log10 CFU/mL
- Viable counts in Log10 CFU/mL (Aspergillus niger; 4 × MIC, 4 h): 5.00 Log10 CFU/mL
- Viable counts in Log10 CFU/mL (Aspergillus niger; 4 × MIC, 6 h): 5.20 Log10 CFU/mL
- Viable counts in Log10 CFU/mL (Aspergillus niger; 4 × MIC, 24 h): 3.85 Log10 CFU/mL
- Viable counts in Log10 CFU/mL (Aspergillus niger; 4 × MIC, 0 h): 5.56 Log10 CFU/mL
- Viable counts in Log10 CFU/mL (Candida albicans; 1 × MIC, 1 h): 5.75 Log10 CFU/mL
- Viable counts in Log10 CFU/mL (Candida albicans; 1 × MIC, 2 h): 5.78 Log10 CFU/mL
- Viable counts in Log10 CFU/mL (Candida albicans; 1 × MIC, 4 h): 6.04 Log10 CFU/mL
- Viable counts in Log10 CFU/mL (Candida albicans; 1 × MIC, 6 h): 6.21 Log10 CFU/mL
- Viable counts in Log10 CFU/mL (Candida albicans; 1 × MIC, 24 h): >6 Log10 CFU/mL
- Viable counts in Log10 CFU/mL (Candida albicans; 1 × MIC, 0 h): 5.74 Log10 CFU/mL
- Viable counts in Log10 CFU/mL (Candida albicans; 2 × MIC, 1 h): 5.68 Log10 CFU/mL
- Viable counts in Log10 CFU/mL (Candida albicans; 2 × MIC, 2 h): 5.67 Log10 CFU/mL
- Viable counts in Log10 CFU/mL (Candida albicans; 2 × MIC, 4 h): 5.68 Log10 CFU/mL
- Viable counts in Log10 CFU/mL (Candida albicans; 2 × MIC, 6 h): 5.58 Log10 CFU/mL
- Viable counts in Log10 CFU/mL (Candida albicans; 2 × MIC, 24 h): >6 Log10 CFU/mL
- Viable counts in Log10 CFU/mL (Candida albicans; 2 × MIC, 0 h): 5.76 Log10 CFU/mL
- Viable counts in Log10 CFU/mL (Candida albicans; 4 × MIC, 1 h): 5.32 Log10 CFU/mL
- Viable counts in Log10 CFU/mL (Candida albicans; 4 × MIC, 2 h): 5.33 Log10 CFU/mL
- Viable counts in Log10 CFU/mL (Candida albicans; 4 × MIC, 4 h): 5.00 Log10 CFU/mL
- Viable counts in Log10 CFU/mL (Candida albicans; 4 × MIC, 6 h): 4.53 Log10 CFU/mL
- Viable counts in Log10 CFU/mL (Candida albicans; 4 × MIC, 24 h): <1 Log10 CFU/mL
- Viable counts in Log10 CFU/mL (Candida albicans; 4 × MIC, 0 h): 5.69 Log10 CFU/mL
- Viable counts, Pseudomonas aeruginosa time kill study (Pseudomonas aeruginosa; 1 × MIC, 1 h): <1 Log10 CFU/mL
- Viable counts, Pseudomonas aeruginosa time kill study (Pseudomonas aeruginosa; 1 × MIC, 2 h): <1 Log10 CFU/mL
- Viable counts, Pseudomonas aeruginosa time kill study (Pseudomonas aeruginosa; 1 × MIC, 4 h): <1 Log10 CFU/mL
- Viable counts, Pseudomonas aeruginosa time kill study (Pseudomonas aeruginosa; 1 × MIC, 6 h): <1 Log10 CFU/mL
- Viable counts, Pseudomonas aeruginosa time kill study (Pseudomonas aeruginosa; 1 × MIC, 24 h): <1 Log10 CFU/mL
- Viable counts, Pseudomonas aeruginosa time kill study (Pseudomonas aeruginosa; 1×MIC, time 0): 5.20 Log10 CFU/mL
- Viable counts, Pseudomonas aeruginosa time kill study (Pseudomonas aeruginosa; 2 × MIC, 1 h): <1 Log10 CFU/mL
- Viable counts, Pseudomonas aeruginosa time kill study (Pseudomonas aeruginosa; 2 × MIC, 2 h): <1 Log10 CFU/mL
- Viable counts, Pseudomonas aeruginosa time kill study (Pseudomonas aeruginosa; 2 × MIC, 4 h): <1 Log10 CFU/mL
- Viable counts, Pseudomonas aeruginosa time kill study (Pseudomonas aeruginosa; 2 × MIC, 6 h): <1 Log10 CFU/mL
- Viable counts, Pseudomonas aeruginosa time kill study (Pseudomonas aeruginosa; 2 × MIC, 24 h): <1 Log10 CFU/mL
- Viable counts, Pseudomonas aeruginosa time kill study (Pseudomonas aeruginosa; 2 × MIC, time 0): 5.25 Log10 CFU/mL
- Viable counts, Pseudomonas aeruginosa time kill study (Pseudomonas aeruginosa; 4 × MIC, 1 h): <1 Log10 CFU/mL
- Viable counts, Pseudomonas aeruginosa time kill study (Pseudomonas aeruginosa; 4 × MIC, 2 h): <1 Log10 CFU/mL
- Viable counts, Pseudomonas aeruginosa time kill study (Pseudomonas aeruginosa; 4 × MIC, 4 h): <1 Log10 CFU/mL
- Viable counts, Pseudomonas aeruginosa time kill study (Pseudomonas aeruginosa; 4 × MIC, 6 h): <1 Log10 CFU/mL
- Viable counts, Pseudomonas aeruginosa time kill study (Pseudomonas aeruginosa; 4 × MIC, 24 h): <1 Log10 CFU/mL
- Viable counts, Pseudomonas aeruginosa time kill study (Pseudomonas aeruginosa; 4 × MIC, time 0): 5.23 Log10 CFU/mL
